# Assay results from BindingDB's records for doi:10.1021/jm049864b (Boehringer Ingelheim (Canada), 2004).
# Where a SMILES comes first, the peptide text is derived from it. [ ]: non-standard residue; d: D form. Nva = CCC[C@H](N)C(=O)O
# Biological target: T1, Genome polyprotein [1027-1206,R1052K]/[1678-1691] (Hepatitis C virus genotype 1b (isolate Japanese), UniProt P26662+Q9WMX2, R1052K)
# T1 construct: 1027-1206; 1678-1691
# Test: HCV Protease Inhibition Assay
# Conditions: pH 7.5; 23 °C
# T1 sequence (Q9WMX2 1027-1206, looked up, stated change not applied, other chains not shown): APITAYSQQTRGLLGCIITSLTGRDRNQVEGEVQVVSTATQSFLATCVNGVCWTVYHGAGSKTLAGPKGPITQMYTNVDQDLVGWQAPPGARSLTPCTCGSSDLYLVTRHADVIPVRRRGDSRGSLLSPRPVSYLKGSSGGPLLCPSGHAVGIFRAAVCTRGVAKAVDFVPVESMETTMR
smiles,measurement,value
CCC[C@H](NC(=O)[C@@H]1CCCN1C(=O)[C@@H](NC(=O)[C@@H](NC(=O)[C@H](CC(=O)O)NC(=O)[C@H](CC(=O)O)NC(C)=O)[C@@H](C)CC)C(C)C)C(=O)O [(2S)-2-{[(2S)-1-[(2S)-2-[(2S)-2-[(3S)-3-[(3S)-3-acetamido-3-formamidopropanoic acid]-3-formamidopropanoic acid]-3-methylpentanamido]-3-methylbutanoyl]pyrrolidin-2-yl]formamido}pentanoic acid] (Ac-DDIVP[Nva]-OH),IC50,150 µM
